Results published in patent US4363923A, “4-Halgeno-oxetan-2-ones and process for their production” (Ciba-Geigy Corporation, priority 1980, dated 1982).
In brackets after ≈: the same amount, converted by molar mass.

What was measured:
Format in all cases: cell-based
[1] = test system: mixed culture of slime-forming bacteria; assay: Bactericidal test on a mixed culture of slime-forming bacteria in saline; details: 30 ppm, start 10^7 organisms/ml in saline
Description: A mixed culture of slime-forming bacteria including Pseudomonas aeruginosa, Enterobacter aerogenes, Escherichia coli, Proteus vulgaris, Bacillus mycoides and Staphylococcus aureus in saline containing 10^7 organisms/ml was treated with 30 ppm of the product of Example 2.

[2] = test system: Ulothrix subtilissima; assay: Test demonstrating algistatic activity; details: Klebsormidium subtilissimum, 504 h, 3 week incubation, shaking water bath, read-out: Minimum inhibitory Concentration, MIC
Description: (§1) The organisms against which the compounds are to be tested are grown in an Erlenmeyer flask in a nutrient medium under sterile conditions on a shaking water bath at 18° C. with exposure (14 hours in light alternating with 10 hours in the dark).
(§2) Tests are carried out against three algae, namely the blue algae
(b) the simple filament-forming Ulothrix subtilissima (B) generally found at colder times of the year in rapidly flowing water;
(§3) The composition of the medium is as follows (according to Algae broth, Difco Laboratories):
(§4) dissolved in 1 liter of distilled water. The nutrient medium treated with the biocide is innoculated with the respective algae suspension such that a final dilution of 1/100 (algae divided with a stirrer) is attained. Evaluation is made after a 3 week incubation in the Erlenmeyer flask on a shaking water bath.

[3] = test system: Phormidium foveolarum; assay: Test demonstrating algistatic activity; details: Nodosilinea foveolarum, 504 h, 3 week incubation, shaking water bath, read-out: Minimum inhibitory Concentration, MIC
Description: as §1, §2
(a) Phormidium foveolarum (A) which lives in polluted water or moist earth and forms trichomes;
as §3, §4

[4] = test system: Tribonema aequale; assay: Test demonstrating algistatic activity; details: 504 h, 3 week incubation, shaking water bath, read-out: Minimum inhibitory Concentration, MIC
Description: as §1, §2
and the algae with brown chromatophors
(c) the widespread, unbranched filament-forming Tribonema aequale (C) occurring in bodies of water especially in the spring at low temperature or in the autumn, even in mild winters.
as §3, §4

SMILES: O=C1CC(Cl)(CC(Cl)(Cl)Cl)O1 (centres unmarked) [Example 2, 4-chloro-4-(2,2,2-trichloroethyl)oxetan-2-one]
- number of organisms reduced to ([1]; after one hour): 10^2 organisms/ml
- killing of bacteria ([1]; within 24 hours): all the bacteria had been killed
- MIC [2]: 30 µg/mL (≈ 126 µM)
- MIC [3]: 30 µg/mL (≈ 126 µM)
- MIC [4]: 30 µg/mL (≈ 126 µM)
